We go through 3 compounds from patent publication EP4775571A1, “LPAR1 ANTAGONIST AND USE THEREOF” (Haisco Pharmaceutical Group Co., Ltd., priority 2023, dated 2025).

For one data set, the target named is T1, LPAR1 (Homo sapiens, UniProt Q92633).
T1 construct: expressed in transfected cells; host or cells: CHO (CHO-LPA1 cells)
In words: Cell calcium flux assay (antagonist mode, LPA at EC80, FLIPR). The following applies: CHO-LPA1 cells, calcium flux, grades; read-out: LPAR1 IC50. The format is cell-based. Here is the method: • 1) The test compound was diluted to a 400X stock solution with DMSO in a 384-well plate. • 2) 1 µl of compound solution from step 1 was transferred into 39 ul of assay buffer to prepare a 10X working solution in a 384-well plate using a Bravo automated liquid handling platform. • 3) CHO-LPA1 cells were cultured in F12 medium (10% FBS). • 4) When cells reached 80% confluence, the cells were dissociated using 0.25% trypsin-EDTA. • 5) Cell density was determined and the cells were diluted to 4x10e5/ml using F12 (10% FBS). • 6) 30 µl of the cell suspension was dispensed into a 384-well plate (corning 3764#) using a multidrop automated dispenser, resulting in 12,000 cells per well. The plate was incubated at 37°C with 5% CO2 for 18-20 hours. • 7) The medium was replaced with 25 uL of serum-free medium and incubated overnight. • 8) 10 ul of 3.5X loading dye was added to each well of the cell plate. The plate was incubated in the dark at 37°C with 5% CO2 for 0.5-1 hours. • 9) After incubation, 5 µl of the 10X working solution from step 2 was transferred to the cell plate. • 10) The cell plate was incubated in the dark at 25°C for 15 minutes, and then the calcium signals were read. • 11) A 5X agonist (LPA) working solution in 1X HBSS+20 mM HEPES+0.1% BSA was prepared in a 384-well assay plate (greiner 784075#), with at least 20 µl per well. The agonist concentration used in this assay was determined based on the dose-response curve from a prior agonist mode experiment, with the EC80 value serving as the final agonist concentration. • 12) Data were read and saved using FLIPR at room temperature with the specified settings. • 13) The signal values were plotted against compound concentrations, and the curve fitting was performed and the IC50 values were calculated using nonlinear regression analysis in GraphPad Prism software.
IC50 values are represented by grades A, B, C, and D, where A represents 0 < IC50 ≤ 10 nM, B represents 10 nM < IC50 ≤ 50 nM, C represents 50 nM < IC50 ≤ 100 nM, and D represents IC50 > 100 nM. Table 1 Antagonistic activity of the compounds of the present invention against LPAR1
A general note: Calcium flux is commonly read through the fluorescence of an indicator in the cells.

Data set [1] is described as follows: Pharmacokinetic test in mice. It is filed as in vivo, C57 mice. The following applies: for pharmacokinetic characteristics in mice: conclusion in words; for Vd: read-out: Vdss. Here is the method: 2.1 Experimental animals: Male C57 mice, 20-25 g, 6 mice/compound, purchased from Chengdu Ddossy Experimental Animals Co., Ltd.
2.2 Experimental design: On the day of the experiment, the C57 mice were randomly grouped according to their body weights. The animals were fasted with water available for 12-14 h one day before the administration, and were fed 4 h after the administration. Table 2. Administration information
Before and after administration, 0.06 mL of blood was taken from the orbit under isoflurane anaesthesia and placed in an EDTAK2 centrifuge tube. The tube was centrifuged at 5000 rpm at 4°C for 10 min, and plasma was collected. The blood collection time points for the intravenous administration group and oral gavage administration group were: 0 min, 5 min, 15 min, 30 min, 1 h, 2 h, 4 h, 6 h, 8 h, and 24 h. Before analysis and detection, all samples were stored at -80°C, and the samples were quantitatively analysed by LC-MS/MS. Table 3. Pharmacokinetic parameters of test compounds in plasma of mice

For data set [2], the system named is bleomycin (BLM)-induced idiopathic pulmonary fibrosis (IPF). The data set can be described thus: Mouse model of bleomycin (BLM)-induced idiopathic pulmonary fibrosis (IPF). It is filed as in vivo, C57BL/6j mice. The source says: • 1) Screening and grouping: A total of 48 nine-week-old male C57BL/6j mice (experimental animals) were used in this study. Prior to the start of the experiment, the animals were divided into a sham-operated group (Group 1, 8 mice) and a model group (40 mice) based on their body weights. One week after model establishment, the model group animals were further divided into […] subgroups (Groups 2-6, n = 8 per group) based on their body weights. • 2) Animal model establishment: On day 1 of the experiment, the animals were anesthetised with Zoletil (50 mg/kg) and Xylazine (10 mg/kg). Mice in the model group received an intratracheal (i.t.) injection of bleomycin at a dose of 0.66 mg/kg (1 U/kg) in a volume of 50 µL on day 1. Mice in the sham-operated group (Group 1, […]) received an intratracheal injection of normal saline in a volume of 50 µL. • 3) Mode of administration of test compounds: Starting from day 7 of the experiment, the animals were treated as follows. Group 3: compound 22 was administered by oral gavage at a dose of 1 mg/kg at a volume of 10 mL/kg body weight, twice daily. Group 4: compound 22 was administered by oral gavage at a dose of 3 mg/kg at a volume of 10 mL/kg body weight, twice daily. Group 5: BMS-986278 was administered by oral gavage at a dose of 10 mg/kg at a volume of 10 mL/kg body weight, twice daily. Group 6: nintedanib was administered by oral gavage at a dose of 60 mg/kg at a volume of 10 mL/kg body weight, once daily. Sham-operated group (Group 1) and model group (Group 2): the vehicle was administered by oral gavage at a volume of 10 mL/kg body weight, twice daily. • 4) Test indicators: Lung tissues were collected at the study endpoint for pathological evaluation.

Data set [3] is described as follows: Pharmacokinetic test in rats. It is filed as in vivo, SD rats. The following applies: for pharmacokinetic characteristics in rats: conclusion in words; for Vd: read-out: Vdss. Here is the method:
3.1. Experimental animals: Male SD rats, about 220 g, 6-8 weeks old, 6 rats/compound, purchased from Chengdu Ddossy Experimental Animals Co., Ltd.
3.2. Experimental design: On the day of the experiment, the SD rats were randomly grouped according to their body weights. The animals were fasted with water available for 12-14 h one day before the administration, and were fed 4 h after the administration. Table 4. Administration information
Before and after administration, 0.15 mL of blood was taken from the orbit under isoflurane anaesthesia and placed in an EDTAK2 centrifuge tube. The tube was centrifuged at 5000 rpm at 4°C for 10 min, and plasma was collected. Before analysis and detection, all samples were stored at -80°C, and the samples were quantitatively analysed by LC-MS/MS. Table 5. Pharmacokinetic parameters of test compound in plasma of rats

The next data set can be described thus: Caco2 permeability test. It is filed as in vitro ADME. The following applies: human, Caco-2 monolayer, 2 hours at 37°C. Here is the method: In the experiment, a monolayer of Caco-2 cells was used, and incubated in triplicate in a 96-well Transwell plate. A transport buffer solution (HBSS, 10 mM HEPES, pH 7.4 ± 0.05) containing the compound of the present invention (2 µM) or the control compound digoxin (10 µM), nadolol (2 µM) or metoprolol (2 µM) was added to the administration end hole on the apical side or basal side. A DMSO-containing transport buffer solution was added to the corresponding receiving end hole. After incubation for 2 hours at 37°C ± 1°C, the cell plate was removed, and an appropriate amount of samples was taken from both the apical side and basal side and transferred to a new 96-well plate. Subsequently, acetonitrile containing an internal standard was added to precipitate the protein. The samples were analysed using LC MS/MS, and the concentrations of the compound of the present invention and the control compound were determined. Concentration data were used to calculate apparent permeability coefficients for transport from the apical side to the basal side, and from the basal side to the apical side of the cell monolayer, and thus to calculate the efflux ratio. The integrity of the cell monolayer after 2 hours of incubation was evaluated by leakage of Lucifer Yellow.

The mark [4] stands for this setting: mouse, iv, mice, i.v. (1 mg/kg), plasma.
[5] abbreviates: mouse, po, mice, i.g. (3 mg/kg), plasma.
[6] abbreviates: 1 mg/kg oral gavage twice daily for 14 consecutive days.
[7] abbreviates: 3 mg/kg oral gavage twice daily for 14 consecutive days.
[8] abbreviates: 3 mg/kg oral gavage twice daily for 14 consecutive days, lung tissue at study endpoint.
Setting [9] is: rat, iv, rats, i.v. (1 mg/kg), plasma.
The mark [10] stands for this setting: rat, po, rats, i.g. (3 mg/kg), plasma.

T1 sequence (Q92633 whole entry): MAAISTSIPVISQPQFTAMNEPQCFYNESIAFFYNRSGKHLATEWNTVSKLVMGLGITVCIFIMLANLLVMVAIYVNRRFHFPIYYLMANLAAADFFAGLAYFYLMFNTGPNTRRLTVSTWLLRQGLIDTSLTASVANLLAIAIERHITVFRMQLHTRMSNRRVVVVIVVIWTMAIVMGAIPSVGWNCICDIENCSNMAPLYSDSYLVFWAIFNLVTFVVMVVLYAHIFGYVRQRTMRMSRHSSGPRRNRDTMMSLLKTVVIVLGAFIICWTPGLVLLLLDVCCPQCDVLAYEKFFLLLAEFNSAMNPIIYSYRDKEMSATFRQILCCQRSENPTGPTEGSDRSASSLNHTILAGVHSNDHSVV

Regarding `Cc1nc(-c2nnn(C)c2CNC(=O)OC2CC(=C(F)F)C2)ccc1O[C@H]1CCC[C@H](C(=O)O)C1` (stereo partly drawn) [Compound 22], on LPAR1, the IC50 is < 10 nM. In addition, the “pharmacokinetic characteristics in mice” value in data set [1] is given as “excellent pharmacokinetic characteristics”. The “C0 or Cmax” value turned out to be 1788 ± 180 ng/mL in data set [1] (mice, i.g. (3 mg/kg), plasma); 1537 ± 290 ng/mL in data set [1] (mice, i.v. (1 mg/kg), plasma); 1630 ± 162 ng/mL in data set [3] (rats, i.g. (3 mg/kg), plasma); 2428 ± 221 ng/mL in data set [3] (rats, i.v. (1 mg/kg), plasma). Moreover, the AUC(0-t) was determined as 1570 ± 74 ng·h/mL in data set [1] (setting [4]), 5610 ± 1410 ng·h/mL in data set [1] (setting [5]), 1790 ± 321 ng·h/mL in data set [3] (setting [9]) and 6710 ± 652 ng·h/mL in data set [3] (setting [10]). Besides, the clearance turned out to be 10.4 ± 0.55 mL/min/kg in data set [1] (setting [4]) and 9.45 ± 1.7 mL/min/kg in data set [3] (setting [9]). The Vd in data set [1] (setting [4]) turned out to be 2.77 ± 0.16 L/kg; in data set [3] (setting [9]) it was 1.21 ± 0.17 L/kg. Besides, the bioavailability in data set [1] (mouse, plasma, po, mice, i.g. (3 mg/kg)) is ≥ 98%; in data set [3] (rat, plasma, po, rats, i.g. (3 mg/kg)), ≥ 98%. Further, the “Modified Ashcroft score compared with the vehicle-treated model group” value in data set [2] (setting [6]) and in data set [2] (setting [7]) was “significantly reduced” each time. For the same compound, the “fibrotic area in lung tissues compared with the vehicle-treated model group” value in data set [2] (setting [6]) and in data set [2] (setting [7]) was “significantly reduced” in each case. Besides, the “Modified Ashcroft score” value in data set [2] (setting [8]) is “less than 4”. Besides, the fibrotic area entry in data set [2] (setting [8]) is listed as “less than 20%”. For the same compound, in data set [2] (dose of 1 mg/kg), the “efficacy relative to BMS-986278 (10 mg/kg) and nintedanib (60 mg/kg)” value is “comparable to that of BMS-986278 (10 mg/kg) and nintedanib (60 mg/kg)”. For the same compound, the “efficacy relative to BMS-986278 and nintedanib” value in data set [2] (dose of 3 mg/kg) is “superior efficacy to both BMS-986278 and nintedanib”. In data set [3], the “pharmacokinetic characteristics in rats” value was “good pharmacokinetic characteristics”.
Turning to `C=C1CC(N(C)C(=O)OCc2c(-c3ccc(OCC(C)(C)CC(=O)O)c(C)n3)nnn2C)C1` [Compound 29], the IC50 at LPAR1 was < 10 nM. The “pharmacokinetic characteristics in rats” value in data set [3] is “good pharmacokinetic characteristics”. Further, the AUC(0-t) in data set [3] (setting [9]) was found to be 1090 ± 208 ng·h/mL; in data set [3] (setting [10]), 2540 ± 679 ng·h/mL. Further, in data set [3] (setting [9]), the clearance came out at 15 ± 2.7 mL/min/kg. Also, the Vd in data set [3] (setting [9]) was 3.53 ± 1.6 L/kg. Moreover, the “C0 or Cmax” value in data set [3] (rats, i.g. (3 mg/kg), plasma) was determined as 739 ± 29 ng/mL; in data set [3] (rats, i.v. (1 mg/kg), plasma), 2324 ± 170 ng/mL.
Take `C=C1CC(OC(=O)NCc2c(-c3ccc(O[C@H]4CCC[C@H](C(=O)O)C4)c(C)n3)nnn2C)C1` [Compound 26]: the IC50 on LPAR1 is < 10 nM. For the same compound, the “pharmacokinetic characteristics in mice” value in data set [1] is listed as “excellent pharmacokinetic characteristics”. For the same compound, the “C0 or Cmax” value in data set [1] (mice, i.g. (3 mg/kg), plasma) stood at 659 ± 55 ng/mL; in data set [1] (mice, i.v. (1 mg/kg), plasma), 2268 ± 193 ng/mL; in data set [3] (rats, i.g. (3 mg/kg), plasma), 1144 ± 145 ng/mL; in data set [3] (rats, i.v. (1 mg/kg), plasma), 2745 ± 354 ng/mL. Also, the AUC(0-t) in data set [1] (setting [4]) worked out at 1580 ± 50 ng·h/mL; in data set [1] (setting [5]), 2290 ± 102 ng·h/mL; in data set [3] (setting [9]), 1870 ± 246 ng·h/mL; in data set [3] (setting [10]), 2880 ± 913 ng·h/mL. Further, the clearance in data set [1] (setting [4]) turned out to be 10.3 ± 0.52 mL/min/kg; in data set [3] (setting [9]), 8.91 ± 1.2 mL/min/kg. Also, the Vd in data set [1] (setting [4]) stood at 2.83 ± 0.53 L/kg; in data set [3] (setting [9]) it was 1.21 ± 0.5 L/kg. The “pharmacokinetic characteristics in rats” value in data set [3] is given as “good pharmacokinetic characteristics”. In addition, in “Caco2 permeability test” (pH 7.4), the efflux ratio at 2 h, 2 µM is 6.79. In addition, the Papp A→B at 2 h, 2 µM in “Caco2 permeability test” (pH 7.4, read-out: Average apparent permeability coefficient A-B) came to 4.31 ×10⁻⁶ cm/s. The Papp B→A at 2 h, 2 µM in the data set “Caco2 permeability test” (pH 7.4, read-out: Average apparent permeability coefficient B-A) stood at 29.2 ×10⁻⁶ cm/s.

By IC50 is commonly meant the concentration at which inhibition is half-maximal. By AUC(0-t) is commonly meant exposure summed from dosing to a finite time, without extrapolation to infinity. A low value points to low exposure. The clearance is the rate of elimination divided by the concentration. Higher therefore signals efficient removal. A word on the bioavailability: it is dose-corrected exposure relative to a reference, in per cent. Higher therefore signals good availability. By efflux ratio is commonly meant a quotient of directional permeabilities that is used to spot active efflux.
